Test results published in paper PMC13210772, “Dual FLT3/MAPK14 Proteolysis-Targeting Chimera (PROTAC) Induces Potent Acute Myeloid Leukemia Cell Death” (Pharmaceuticals, 2026).

What was measured:
Experiment in all cases: NanoBRET CELLinib128
CAMK1 = CAMK1 (Homo sapiens, UniProt Q14012); details: read-out: Tracer bound
TESK1 = biological target: T1, TESK1 (Homo sapiens, UniProt Q15569); format: binding; details: 100% no effect, 0% complete tracer displacement, read-out: Tracer bound
T1 construct: Full-length kinase ORF (Promega, Madison, WI, USA) cloned in frame with a NanoLuc-vector; host or cells: HEK293T

CLK4 = CLK4 (Homo sapiens, UniProt Q9HAZ1); details: read-out: Tracer bound
CSNK1D = CSNK1D (Homo sapiens, UniProt P48730); details: read-out: Tracer bound
DDR1 = DDR1 (Homo sapiens, UniProt Q08345); details: read-out: Tracer bound
EPHB6 = EPHB6 (Homo sapiens, UniProt O15197); details: read-out: Tracer bound
FYN = biological target: T2, FYN (Homo sapiens, UniProt P06241); format: binding; details: 100% no effect, 0% complete tracer displacement, read-out: Tracer bound
T2 construct: Full-length kinase ORF (Promega, Madison, WI, USA) cloned in frame with a NanoLuc-vector was transfected into HEK293T cells; host or cells: HEK293T

NUAK1 = biological target: T3, NUAK1 (Homo sapiens, UniProt O60285); format: binding; details: 1 µM; 100% no effect, 0% complete tracer displacement
T3 construct: Full-length kinase ORF (Promega, Madison, WI, USA) cloned in frame with a NanoLuc-vector was transfected into HEK293T cells; host or cells: HEK293T
Procedure: (§1) To get an impression about the binding strength of the PROTAC MA191 and the reference inhibitor MA68 to other kinases besides FLT3-ITD the binding on a kinase panel of further 128 representative protein kinases at 1 μM concentration was tested using the NanoBRET^TM cellular target engagement assay (CELLinib128 assay, CELLinib GmbH, Frankfurt, Germany). […] In none of the 128 kinases MA191 was able to displace the tracer (inhibitor) used by more than 50%, Table S1, Supplementary Information).
(§2) The CELLinib128 assay was performed by CELLinib GmbH, Frankfurt (Germany) as described previously. In brief: Full-length kinase ORF (Promega, Madison, WI, USA) cloned in frame with a NanoLuc-vector was transfected into HEK293T cells in Opti-MEM without phenol red (Life Technologies, Carlsbad, CA, USA) at a density of 2 × 10^5 cells/mL using FuGENE HD (Promega, E2312) and proteins were allowed to express for 20 h. For CDKs, where indicated below, an excess of an activator without an NLuc-fusion was cotransfected. […] The system was allowed to equilibrate at 37 °C for 2 h and 5% CO2 prior to BRET measurements. For PKCs, a chemical activator PMA was added in a final concentration of 1 µM was added together with test compounds and tracers (Promega, V1171). To measure BRET, NanoBRET^TM NanoGlo substrate + extracellular NanoLuc inhibitor (Promega, N2160) were added as per the manufacturer’s protocol, and filtered luminescence was measured (450 nm BP filter (donor) and 610 nm LP filter (acceptor)). For the 1-shot test compounds, data were normalized to the tracer control and the background control or control compound plateau and an average and SD were calculated. […] For the control compounds competitive displacement data were normalized to the tracer Ctrl and the background Ctrl and then plotted and fitted using GraphPad Prism 10 software using a normalized 3-parameter curve fit with the following equation: Y = 100/(1 + 10^X−LogIC50).

NEK1 = biological target: T4, NEK1 (Homo sapiens, UniProt Q96PY6); format: binding; details: 100% no effect, 0% complete tracer displacement, read-out: Tracer bound
T4 construct: Full-length kinase ORF (Promega, Madison, WI, USA) cloned in frame with a NanoLuc-vector was transfected into HEK293T cells; host or cells: HEK293T
Procedure: as §1, §2

FGFR2 = biological target: T5, FGFR2 (Homo sapiens, UniProt P21802); format: binding; details: 100% no effect, 0% complete tracer displacement, read-out: Tracer bound
T5 construct: Full-length kinase ORF (Promega, Madison, WI, USA) cloned in frame with a NanoLuc-vector was transfected into HEK293T cells; host or cells: HEK293T
Procedure: as §1, §2

JAK3 = biological target: T6, JAK3 (Homo sapiens, UniProt P52333); format: binding; details: 100% no effect, 0% complete tracer displacement, read-out: Tracer bound
T6 construct: Full-length kinase ORF (Promega, Madison, WI, USA) cloned in frame with a NanoLuc-vector was transfected into HEK293T cells; host or cells: HEK293T
Procedure: as §1, §2

STK33 = biological target: T7, STK33 (Homo sapiens, UniProt Q9BYT3); format: binding; details: 100% no effect, 0% complete tracer displacement, read-out: Tracer bound
T7 construct: Full-length kinase ORF (Promega, Madison, WI, USA) cloned in frame with a NanoLuc-vector was transfected into HEK293T cells; host or cells: HEK293T
Procedure: as §1, §2

PRKAA2 = biological target: T8, PRKAA2 (Homo sapiens, UniProt P54646); format: binding; details: 100% no effect, 0% complete tracer displacement, read-out: Tracer bound
T8 construct: Full-length kinase ORF (Promega, Madison, WI, USA) cloned in frame with a NanoLuc-vector was transfected into HEK293T cells; host or cells: HEK293T
Procedure: as §1, §2

JAK2 = biological target: T9, JAK2 (Homo sapiens, UniProt O60674); format: binding; details: 1 µM; 100% no effect, 0% complete tracer displacement
T9 construct: Full-length kinase ORF (Promega, Madison, WI, USA) cloned in frame with a NanoLuc-vector was transfected into HEK293T cells; host or cells: HEK293T
Procedure: as §1, §2

CDK20-CCNH = biological target: T10, CDK20-CCNH (Homo sapiens, UniProt Q8IZL9); format: binding; details: 100% no effect, 0% complete tracer displacement, read-out: Tracer bound
T10 construct: Full-length kinase ORF (Promega, Madison, WI, USA) cloned in frame with a NanoLuc-vector was transfected into HEK293T cells; host or cells: HEK293T
Procedure: as §1, §2

TNK1 = biological target: T11, TNK1 (Homo sapiens, UniProt Q13470); format: binding; details: 100% no effect, 0% complete tracer displacement, read-out: Tracer bound
T11 construct: Full-length kinase ORF (Promega, Madison, WI, USA) cloned in frame with a NanoLuc-vector; host or cells: HEK293T
Procedure: as §1, §2

STK3 = biological target: T12, STK3 (Homo sapiens, UniProt Q13188); format: binding; details: 100% no effect, 0% complete tracer displacement, read-out: Tracer bound
T12 construct: Full-length kinase ORF (Promega, Madison, WI, USA) cloned in frame with a NanoLuc-vector was transfected into HEK293T cells; host or cells: HEK293T
Procedure: as §1, §2

BTK = biological target: T13, BTK (Homo sapiens, UniProt Q06187); format: binding; details: 1 µM; 100% no effect, 0% complete tracer displacement
T13 construct: Full-length kinase ORF (Promega, Madison, WI, USA) cloned in frame with a NanoLuc-vector was transfected into HEK293T cells; host or cells: HEK293T
Procedure: as §1, §2

PLK4 = biological target: T14, PLK4 (Homo sapiens, UniProt O00444); format: binding; details: 100% no effect, 0% complete tracer displacement, read-out: Tracer bound
T14 construct: Full-length kinase ORF (Promega, Madison, WI, USA) cloned in frame with a NanoLuc-vector was transfected into HEK293T cells; host or cells: HEK293T
Procedure: as §1, §2

PHKG1 = biological target: T15, PHKG1 (Homo sapiens, UniProt Q16816); format: binding; details: 100% no effect, 0% complete tracer displacement, read-out: Tracer bound
T15 construct: Full-length kinase ORF (Promega, Madison, WI, USA) cloned in frame with a NanoLuc-vector was transfected into HEK293T cells; host or cells: HEK293T
Procedure: as §1, §2

PRKCD-PMA = biological target: T16, PRKCD-PMA (Homo sapiens, UniProt Q05655); format: binding; details: 100% no effect, 0% complete tracer displacement, read-out: Tracer bound
T16 construct: Full-length kinase ORF (Promega, Madison, WI, USA) cloned in frame with a NanoLuc-vector was transfected into HEK293T cells; host or cells: HEK293T
Procedure: as §1, §2

MAPK9 = biological target: T17, MAPK9 (Homo sapiens, UniProt P45984); format: binding; details: 1 µM; 100% no effect, 0% complete tracer displacement
T17 construct: Full-length kinase ORF (Promega, Madison, WI, USA) cloned in frame with a NanoLuc-vector was transfected into HEK293T cells; host or cells: HEK293T
Procedure: as §1, §2

PAK4 = biological target: T18, PAK4 (Homo sapiens, UniProt O96013); format: binding; details: 100% no effect, 0% complete tracer displacement, read-out: Tracer bound
T18 construct: Full-length kinase ORF (Promega, Madison, WI, USA) cloned in frame with a NanoLuc-vector was transfected into HEK293T cells; host or cells: HEK293T
Procedure: as §1, §2

NEK9 = biological target: T19, NEK9 (Homo sapiens, UniProt Q8TD19); format: binding; details: 100% no effect, 0% complete tracer displacement, read-out: Tracer bound
T19 construct: Full-length kinase ORF (Promega, Madison, WI, USA) cloned in frame with a NanoLuc-vector was transfected into HEK293T cells; host or cells: HEK293T
Procedure: as §1, §2

CDK2-CCNE1 = biological target: T20, CDK2-CCNE1 (Homo sapiens, UniProt P24941); format: binding; details: 1 µM; 100% no effect, 0% complete tracer displacement
T20 construct: Full-length kinase ORF (Promega, Madison, WI, USA) cloned in frame with a NanoLuc-vector was transfected into HEK293T cells; host or cells: HEK293T
Procedure: as §1, §2

BRSK1 = biological target: T21, BRSK1 (Homo sapiens, UniProt Q8TDC3); format: binding; details: 100% no effect, 0% complete tracer displacement, read-out: Tracer bound
T21 construct: Full-length kinase ORF (Promega, Madison, WI, USA) cloned in frame with a NanoLuc-vector was transfected into HEK293T cells; host or cells: HEK293T
Procedure: as §1, §2

SNRK = biological target: T22, SNRK (Homo sapiens, UniProt Q9NRH2); format: binding; details: 100% no effect, 0% complete tracer displacement, read-out: Tracer bound
T22 construct: Full-length kinase ORF (Promega, Madison, WI, USA) cloned in frame with a NanoLuc-vector was transfected into HEK293T cells; host or cells: HEK293T
Procedure: as §1, §2

TRKA = biological target: T23, TRKA (Homo sapiens, UniProt P04629); format: binding; details: 100% no effect, 0% complete tracer displacement, read-out: Tracer bound
T23 construct: Full-length kinase ORF (Promega, Madison, WI, USA) cloned in frame with a NanoLuc-vector; host or cells: HEK293T
Procedure: as §1, §2

CDK14-CCNY = biological target: T24, CDK14-CCNY (Homo sapiens, UniProt O94921); format: binding; details: 1 µM; 100% no effect, 0% complete tracer displacement
T24 construct: Full-length kinase ORF (Promega, Madison, WI, USA) cloned in frame with a NanoLuc-vector was transfected into HEK293T cells; host or cells: HEK293T
Procedure: as §1, §2

T19 sequence (Q8TD19 whole entry): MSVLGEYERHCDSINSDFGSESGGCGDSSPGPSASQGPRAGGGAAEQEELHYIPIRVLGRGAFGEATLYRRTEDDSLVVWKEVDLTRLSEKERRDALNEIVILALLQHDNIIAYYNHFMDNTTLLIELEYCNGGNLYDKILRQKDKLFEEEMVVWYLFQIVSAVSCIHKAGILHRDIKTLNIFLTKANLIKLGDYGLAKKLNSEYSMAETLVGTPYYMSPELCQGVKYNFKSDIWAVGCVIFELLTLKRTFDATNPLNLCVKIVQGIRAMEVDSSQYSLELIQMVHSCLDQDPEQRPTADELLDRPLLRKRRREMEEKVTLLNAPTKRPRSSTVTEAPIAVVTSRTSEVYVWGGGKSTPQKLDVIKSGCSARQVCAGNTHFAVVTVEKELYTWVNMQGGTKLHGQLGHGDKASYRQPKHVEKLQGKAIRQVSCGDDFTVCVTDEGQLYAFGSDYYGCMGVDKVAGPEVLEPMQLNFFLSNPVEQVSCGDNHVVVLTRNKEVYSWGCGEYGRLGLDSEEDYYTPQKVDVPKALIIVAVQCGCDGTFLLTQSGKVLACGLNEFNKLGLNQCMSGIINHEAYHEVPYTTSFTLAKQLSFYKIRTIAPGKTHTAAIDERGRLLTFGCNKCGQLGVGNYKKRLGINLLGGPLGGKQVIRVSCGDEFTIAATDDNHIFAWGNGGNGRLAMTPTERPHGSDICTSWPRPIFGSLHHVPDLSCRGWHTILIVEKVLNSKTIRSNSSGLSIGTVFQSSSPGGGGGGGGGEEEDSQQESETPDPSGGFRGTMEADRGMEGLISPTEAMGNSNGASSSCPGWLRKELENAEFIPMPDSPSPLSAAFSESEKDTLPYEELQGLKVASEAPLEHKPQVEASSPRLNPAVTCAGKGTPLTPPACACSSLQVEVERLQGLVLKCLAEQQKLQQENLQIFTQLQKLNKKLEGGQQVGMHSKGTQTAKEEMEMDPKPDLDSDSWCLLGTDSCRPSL
T8 sequence (P54646 whole entry): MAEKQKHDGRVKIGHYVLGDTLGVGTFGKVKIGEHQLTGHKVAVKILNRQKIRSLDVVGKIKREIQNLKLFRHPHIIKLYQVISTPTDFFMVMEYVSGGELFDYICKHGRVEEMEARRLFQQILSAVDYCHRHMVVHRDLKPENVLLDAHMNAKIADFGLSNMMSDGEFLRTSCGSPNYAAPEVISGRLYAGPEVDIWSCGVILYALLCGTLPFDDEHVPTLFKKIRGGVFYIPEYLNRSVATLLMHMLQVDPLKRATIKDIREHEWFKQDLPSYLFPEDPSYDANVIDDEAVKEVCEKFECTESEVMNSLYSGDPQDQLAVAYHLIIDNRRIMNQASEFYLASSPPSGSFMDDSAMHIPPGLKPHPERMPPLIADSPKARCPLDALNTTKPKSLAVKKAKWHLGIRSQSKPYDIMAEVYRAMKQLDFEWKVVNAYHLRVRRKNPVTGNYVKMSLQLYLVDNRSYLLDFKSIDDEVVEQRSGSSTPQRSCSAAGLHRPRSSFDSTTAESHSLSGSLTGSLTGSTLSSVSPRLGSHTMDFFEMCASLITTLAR
T12 sequence (Q13188 whole entry): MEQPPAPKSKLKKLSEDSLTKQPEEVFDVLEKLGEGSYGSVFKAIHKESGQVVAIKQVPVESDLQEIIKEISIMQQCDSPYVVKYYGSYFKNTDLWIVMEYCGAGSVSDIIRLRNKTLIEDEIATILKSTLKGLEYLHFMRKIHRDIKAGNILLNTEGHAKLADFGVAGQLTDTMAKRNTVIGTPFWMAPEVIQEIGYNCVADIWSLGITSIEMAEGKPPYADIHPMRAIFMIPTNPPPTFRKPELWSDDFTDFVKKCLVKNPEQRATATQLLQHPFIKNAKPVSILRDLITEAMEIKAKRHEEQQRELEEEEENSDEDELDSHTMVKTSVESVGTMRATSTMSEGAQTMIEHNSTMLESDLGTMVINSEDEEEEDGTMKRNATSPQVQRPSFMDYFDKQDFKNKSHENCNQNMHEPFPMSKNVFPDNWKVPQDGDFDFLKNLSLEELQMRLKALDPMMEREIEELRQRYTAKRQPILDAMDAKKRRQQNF
DDR1, sequence (Q08345 19-913): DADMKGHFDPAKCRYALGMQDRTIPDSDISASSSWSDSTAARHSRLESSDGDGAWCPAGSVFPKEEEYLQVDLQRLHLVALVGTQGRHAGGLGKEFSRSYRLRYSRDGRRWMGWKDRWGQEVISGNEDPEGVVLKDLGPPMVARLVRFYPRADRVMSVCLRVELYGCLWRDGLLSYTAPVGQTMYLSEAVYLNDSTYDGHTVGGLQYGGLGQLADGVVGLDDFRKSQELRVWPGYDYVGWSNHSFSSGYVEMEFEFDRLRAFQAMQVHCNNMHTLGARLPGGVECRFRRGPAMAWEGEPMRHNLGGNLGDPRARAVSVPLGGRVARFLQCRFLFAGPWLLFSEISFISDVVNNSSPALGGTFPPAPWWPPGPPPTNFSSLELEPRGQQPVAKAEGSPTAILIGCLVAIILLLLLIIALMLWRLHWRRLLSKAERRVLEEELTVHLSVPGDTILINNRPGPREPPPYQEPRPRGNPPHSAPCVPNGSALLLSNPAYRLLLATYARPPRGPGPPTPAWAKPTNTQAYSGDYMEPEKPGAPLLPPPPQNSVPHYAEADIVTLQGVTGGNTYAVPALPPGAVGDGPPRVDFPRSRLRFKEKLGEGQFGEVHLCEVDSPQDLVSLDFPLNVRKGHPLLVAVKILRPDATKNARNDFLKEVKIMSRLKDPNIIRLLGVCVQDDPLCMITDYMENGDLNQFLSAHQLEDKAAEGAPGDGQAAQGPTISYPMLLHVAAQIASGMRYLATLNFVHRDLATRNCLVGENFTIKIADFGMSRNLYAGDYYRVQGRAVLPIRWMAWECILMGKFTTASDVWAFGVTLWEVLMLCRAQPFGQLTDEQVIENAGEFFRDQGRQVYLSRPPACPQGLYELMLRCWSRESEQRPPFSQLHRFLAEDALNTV
T15 sequence (Q16816 whole entry): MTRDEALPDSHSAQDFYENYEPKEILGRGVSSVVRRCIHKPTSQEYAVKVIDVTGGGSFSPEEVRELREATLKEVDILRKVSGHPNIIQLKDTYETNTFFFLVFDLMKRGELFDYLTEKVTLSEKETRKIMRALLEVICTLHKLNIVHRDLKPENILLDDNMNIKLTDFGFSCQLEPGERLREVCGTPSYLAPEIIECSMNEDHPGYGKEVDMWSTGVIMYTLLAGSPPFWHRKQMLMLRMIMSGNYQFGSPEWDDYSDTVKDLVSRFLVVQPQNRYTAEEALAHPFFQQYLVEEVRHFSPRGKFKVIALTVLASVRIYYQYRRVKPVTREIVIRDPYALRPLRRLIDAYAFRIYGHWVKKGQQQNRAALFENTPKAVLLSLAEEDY
T5 sequence (P21802 22-821): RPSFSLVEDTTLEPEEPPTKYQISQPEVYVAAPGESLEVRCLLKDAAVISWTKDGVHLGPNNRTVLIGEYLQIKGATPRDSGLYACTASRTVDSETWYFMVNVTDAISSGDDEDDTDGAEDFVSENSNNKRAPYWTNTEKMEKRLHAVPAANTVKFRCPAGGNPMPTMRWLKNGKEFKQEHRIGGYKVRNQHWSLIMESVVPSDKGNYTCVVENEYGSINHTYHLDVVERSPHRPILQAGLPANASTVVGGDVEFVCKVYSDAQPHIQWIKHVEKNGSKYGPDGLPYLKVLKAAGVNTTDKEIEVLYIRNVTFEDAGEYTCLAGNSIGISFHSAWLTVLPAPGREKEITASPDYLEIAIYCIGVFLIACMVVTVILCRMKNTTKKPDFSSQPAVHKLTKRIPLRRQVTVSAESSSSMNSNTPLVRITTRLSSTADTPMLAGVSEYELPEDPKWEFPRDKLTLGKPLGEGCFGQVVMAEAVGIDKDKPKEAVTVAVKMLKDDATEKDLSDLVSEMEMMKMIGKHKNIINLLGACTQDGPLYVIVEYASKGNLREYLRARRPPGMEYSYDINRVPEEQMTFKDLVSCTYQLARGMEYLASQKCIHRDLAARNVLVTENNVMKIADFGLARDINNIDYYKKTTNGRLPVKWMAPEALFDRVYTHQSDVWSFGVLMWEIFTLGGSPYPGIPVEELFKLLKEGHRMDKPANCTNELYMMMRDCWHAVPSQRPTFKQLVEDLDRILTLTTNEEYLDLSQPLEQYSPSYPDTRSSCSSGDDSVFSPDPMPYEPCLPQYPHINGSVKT
T22 sequence (Q9NRH2 whole entry): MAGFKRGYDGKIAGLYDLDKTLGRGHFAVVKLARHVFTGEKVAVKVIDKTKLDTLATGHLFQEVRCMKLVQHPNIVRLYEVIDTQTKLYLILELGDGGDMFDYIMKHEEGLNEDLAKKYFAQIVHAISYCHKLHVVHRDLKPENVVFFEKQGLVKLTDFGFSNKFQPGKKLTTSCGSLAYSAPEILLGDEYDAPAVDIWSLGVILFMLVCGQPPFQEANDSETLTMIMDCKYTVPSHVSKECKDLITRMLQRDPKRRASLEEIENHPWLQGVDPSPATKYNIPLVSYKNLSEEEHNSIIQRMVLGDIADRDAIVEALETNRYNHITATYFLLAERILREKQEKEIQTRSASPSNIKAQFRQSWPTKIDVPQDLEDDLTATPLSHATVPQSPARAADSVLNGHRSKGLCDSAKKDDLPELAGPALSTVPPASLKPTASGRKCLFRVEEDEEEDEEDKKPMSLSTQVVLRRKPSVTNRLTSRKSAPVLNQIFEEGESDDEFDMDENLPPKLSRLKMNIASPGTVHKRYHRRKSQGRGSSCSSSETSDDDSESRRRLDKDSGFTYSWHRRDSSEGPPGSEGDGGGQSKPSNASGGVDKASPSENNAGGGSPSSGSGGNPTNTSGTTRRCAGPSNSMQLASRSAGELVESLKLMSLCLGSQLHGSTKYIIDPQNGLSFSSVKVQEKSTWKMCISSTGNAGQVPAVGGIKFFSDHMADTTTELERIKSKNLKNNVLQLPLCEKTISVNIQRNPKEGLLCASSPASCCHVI

Compound | remaining activity at 1 µM (CAMK1) [%] | remaining activity at 1 µM (TESK1) [%] | remaining activity at 1 µM (CLK4) [%] | remaining activity at 1 µM (CSNK1D) [%] | remaining activity at 1 µM (DDR1) [%] | remaining activity at 1 µM (EPHB6) [%] | remaining activity at 1 µM (FYN) [%] | Tracer bound (NUAK1) [%] | remaining activity at 1 µM (NEK1) [%] | remaining activity at 1 µM (FGFR2) [%] | remaining activity at 1 µM (JAK3) [%] | remaining activity at 1 µM (STK33) [%] | remaining activity at 1 µM (PRKAA2) [%] | Tracer bound (JAK2) [%] | remaining activity at 1 µM (CDK20-CCNH) [%] | remaining activity at 1 µM (TNK1) [%] | remaining activity at 1 µM (STK3) [%] | Tracer bound (BTK) [%] | remaining activity at 1 µM (PLK4) [%] | remaining activity at 1 µM (PHKG1) [%] | other results
CNC(=O)c1cc(Oc2ccc(NC(=O)Nc3cc(C(C)(C)C)on3)cc2)ccn1 [MA68, reference compound] | 100 | 102 | 93.8 | 104 | 4 | 99.5 | 114 | 120.0 | 110 | 40.7 | 111 | 94.8 | 109 | 110.6 | 93.3 | 114 | 99.3 | 120.0 | 107 | 87.3 | remaining activity at 1 µM (PRKCD-PMA): 113%; Tracer bound (MAPK9): 94.9%; remaining activity at 1 µM (PAK4): 97.7%; remaining activity at 1 µM (NEK9): 109%; Tracer bound (CDK2-CCNE1): 96.0%; remaining activity at 1 µM (BRSK1): 106%; remaining activity at 1 µM (SNRK): 99.2%; remaining activity at 1 µM (TRKA): 28.6%; Tracer bound (CDK14-CCNY): 42.0%
Cc1ncsc1-c1ccc([C@H](C)NC(=O)[C@@H]2C[C@@H](O)CN2C(=O)[C@@H](NC(=O)[C@H]2CC[C@H](C(=O)N3CCN(CCNC(=O)c4cc(Oc5ccc(NC(=O)Nc6cc(C(C)(C)C)on6)cc5)ccn4)CC3)CC2)C(C)(C)C)cc1 [MA191, 4-(4-(3-(5-(tert-Butyl)isoxazol-3-yl)ureido)phenoxy)-N-(2-(4-(trans-4-(((S)-1-((2S,4R)-4-hydroxy-2-(((S)-1-(4-(4-methylthiazol-5-yl)phenyl)ethyl)carbamoyl)pyrrolidin-1-yl)-3,3-dimethyl-1-oxobutan-2-yl)carbamoyl)cyclohexanecarbonyl)piperazin-1-yl)ethyl)picolinamide] | 93.6 | 116 | 100 | 120 | 85.7 | 120 | 120 | 120.0 | 95.9 | 109 | 117 | 99 | 119 | 105.7 | 108 | 120 | 105 | 120.0 | 112 | 93.5 | remaining activity at 1 µM (PRKCD-PMA): 115%; Tracer bound (MAPK9): 101.6%; remaining activity at 1 µM (PAK4): 101%; remaining activity at 1 µM (NEK9): 109%; Tracer bound (CDK2-CCNE1): 102.5%; remaining activity at 1 µM (BRSK1): 107%; remaining activity at 1 µM (SNRK): 97%; remaining activity at 1 µM (TRKA): 103%; Tracer bound (CDK14-CCNY): 95.7%
